Literature values as cited in patent US20050182128A1, “Use of anethole dithiolethione in lung cancer chemoprevention” (priority 2002, published 2005).

Experiments:
[1] = tested on: metaplasia; conditions: metaplasia as intermediate endpoint biomarker; cited from earlier work
[2] = tested on: aflatoxins; conditions: in vivo; cited from earlier work
[3] = tested on: glutathione-S-transferase (GST); conditions: rat model of hepatoma; p<0.01; cited from earlier work
[4] = in vivo; cited from earlier work

| SMILES | Chemopreventive efficacy [1] | Phase I activation of aflatoxins [2] | Phase II conjugation of aflatoxin [2] | Mean GST levels in the liver [3] | Toxicity in chemoprevention [4] |
| --- | --- | --- | --- | --- | --- |
| CC1=C(/C=C/C(C)=C/C=C/C(C)=C\C(=O)O)C(C)(C)CCC1 [isotretinoin] | not found to be effective |  |  |  |  |
| CC1=C(/C=C/C(C)=C/C=C/C(C)=C/C(=O)Nc2ccc(O)cc2)C(C)(C)CCC1 [N-(4-Hydroxyphenyl)retinamide] | not found to be effective |  |  |  |  |
| Cc1c(-c2cnccn2)ssc1=S [Oltipraz, 5-(2-pyrazinyl)-4-methyl-1,2-dithiol-3-thione] |  | inhibited phase I activation of aflatoxins | increased phase II conjugation of aflatoxin | statistically increased | too toxic for chemoprevention |
